Key:
5-HT7 receptor = target: T1, 5-HT7 receptor (Homo sapiens, UniProt P34969); assay: Radioligand binding assay, serotoninergic 5-HT7 receptors; conditions: binding assay result in %, Table 5a;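 also: test compound at 1 µM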
T1 construct: purchased PerkinElmer
Description: (§1) The specific ligand binding to the receptors is defined as the difference between the total binding and the non-specific binding determined in the presence of the excess of unlabelled ligand.
(§2) The results are expressed as a percent of control specific binding ((measured specific binding/control specific binding)×100) and as a percent inhibition of control specific binding (100−((measured specific binding/control specific binding)×100)) obtained in the presence of the test compounds. The specific ligand binding to the receptors is defined as the difference between the total binding and the nonspecific binding determined in the presence of an excess of unlabelled ligand. Scintillation counting was the method of detection of ligand binding. The IC50 values (concentration causing a half-maximal inhibition of control specific binding) were determined by non-linear regression analysis of the competition curves generated with mean replicate values using Hill equation curve fitting (Y=D+[(A−D)/(1+(C/C50)nH)], where Y=specific binding, D=minimum specific binding, A=maximum specific binding, C=compound concentration, C50=IC50, and nH=slope factor). This analysis was performed using a software developed at Cerep (Hill software) and validated by comparison with data generated by the commercial software SigmaPlot® 4.0 for Windows® (© 1997 by SPSS Inc.). The inhibition constants (Ki) were calculated using the Cheng Prusoff equation (Ki=IC50/(1+(L/KD)), where L=concentration of radioligand in the assay, and KD=affinity of the radioligand for the receptor). A scatchard plot was used to determine the Kd.
(§3) Experimental conditions for tests are given in Table 4, and results of tests for representative compounds of the invention are given in Table 5a and 5b (receptors 5-HT1A, 5-HT2A, 5-HT6 and 5-HT7) and in Table 6 (receptors 5-HT2C).
5-HT7: Bryan L. Roth. Assay Protocol Book. University of North Carolina At Chapel Hill. National Institute of Mental Health. Psychoactive Drug Screening Program. Available on-line at 31 Aug. 2008: http://pdsp.med.unc.edu/UNC-CH %20Protocol%20Book.pdf

[1] = target: T2, serotonin transporter (SERT) (Homo sapiens, UniProt P31645); assay: Radioligand binding assay, serotonin transporter (SERT); conditions: binding assay, test compound 1×10^−6 M
T2 construct: expressed in transfected cells; host or cells: CHO cells
T2 sequence (P31645 whole entry): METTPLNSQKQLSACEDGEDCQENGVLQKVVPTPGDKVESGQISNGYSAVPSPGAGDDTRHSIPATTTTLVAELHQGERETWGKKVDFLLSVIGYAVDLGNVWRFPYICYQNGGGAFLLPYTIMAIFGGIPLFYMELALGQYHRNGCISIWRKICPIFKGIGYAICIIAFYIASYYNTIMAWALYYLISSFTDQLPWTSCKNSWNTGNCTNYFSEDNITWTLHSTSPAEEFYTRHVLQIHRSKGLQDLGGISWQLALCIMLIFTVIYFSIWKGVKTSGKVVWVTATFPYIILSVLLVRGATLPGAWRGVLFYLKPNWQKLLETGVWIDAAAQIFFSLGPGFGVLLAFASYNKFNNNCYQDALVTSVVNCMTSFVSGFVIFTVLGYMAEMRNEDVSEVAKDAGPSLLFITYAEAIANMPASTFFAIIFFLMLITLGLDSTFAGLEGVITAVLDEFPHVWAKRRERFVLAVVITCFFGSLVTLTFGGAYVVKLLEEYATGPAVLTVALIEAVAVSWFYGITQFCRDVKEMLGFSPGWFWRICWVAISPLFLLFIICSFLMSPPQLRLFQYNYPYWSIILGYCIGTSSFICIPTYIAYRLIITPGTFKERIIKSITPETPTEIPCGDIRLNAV
Description: as §1, §2
Experimental conditions for tests are given in Table 12, and results of tests for representative compounds are given in Tables 13a and 13b.

5-HT2A receptor = target: T3, 5-HT2A receptor (Homo sapiens, UniProt P28223); assay: Radioligand binding assay, serotoninergic 5-HT2A receptors; conditions: binding assay result in %, Table 5a
T3 construct: purchased PerkinElmer
T3 sequence (P28223 whole entry): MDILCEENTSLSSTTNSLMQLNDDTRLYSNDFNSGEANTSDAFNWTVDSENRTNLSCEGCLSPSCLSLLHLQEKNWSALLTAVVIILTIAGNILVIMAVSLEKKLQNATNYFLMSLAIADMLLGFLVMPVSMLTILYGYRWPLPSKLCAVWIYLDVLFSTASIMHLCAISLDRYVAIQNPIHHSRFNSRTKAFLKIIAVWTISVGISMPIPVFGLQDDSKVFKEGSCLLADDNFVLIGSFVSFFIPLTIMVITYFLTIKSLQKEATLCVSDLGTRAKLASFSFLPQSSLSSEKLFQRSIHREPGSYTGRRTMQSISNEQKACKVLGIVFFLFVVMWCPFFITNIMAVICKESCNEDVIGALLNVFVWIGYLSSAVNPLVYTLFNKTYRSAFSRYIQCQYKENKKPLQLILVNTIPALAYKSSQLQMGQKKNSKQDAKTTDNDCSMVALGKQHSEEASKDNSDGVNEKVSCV
Description: as §1, §2
5-HT2A: Bryan L. Roth. Assay Protocol Book. University of North Carolina At Chapel Hill. National Institute of Mental Health. Psychoactive Drug Screening Program. Available on-line at 31 Aug. 2008: http://pdsp.med.unc.edu/UNC-CH%20Protocol%20Book.pdf

[2] = target: dopaminergic receptors D2 (Homo sapiens, UniProt P14416); assay: Radioligand binding assay, dopaminergic D2 receptors; conditions: binding assay, test compound 1×10^−6 M
dopaminergic receptors D2, sequence (P14416 whole entry): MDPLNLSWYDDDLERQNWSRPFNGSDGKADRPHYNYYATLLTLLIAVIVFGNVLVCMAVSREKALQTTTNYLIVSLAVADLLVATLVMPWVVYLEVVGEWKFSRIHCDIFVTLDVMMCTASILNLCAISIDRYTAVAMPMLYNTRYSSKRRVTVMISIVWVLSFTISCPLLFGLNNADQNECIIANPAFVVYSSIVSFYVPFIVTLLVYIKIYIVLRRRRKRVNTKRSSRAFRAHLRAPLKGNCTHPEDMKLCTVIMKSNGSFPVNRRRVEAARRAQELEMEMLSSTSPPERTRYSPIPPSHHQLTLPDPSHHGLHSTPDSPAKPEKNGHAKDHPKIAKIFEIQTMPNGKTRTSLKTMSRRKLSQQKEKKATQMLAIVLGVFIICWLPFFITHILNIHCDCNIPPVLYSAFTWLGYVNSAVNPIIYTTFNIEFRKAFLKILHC
Description: as §1, §2
(§4) Experimental conditions for tests are given in Table 1, the results of tests for representative compounds are given in Tables 2a and 2b (receptors D2 and D3) and in Table 3 (receptors D4).

5-HT6 receptor = target: T4, 5-HT6 receptor (Homo sapiens, UniProt P50406); assay: Radioligand binding assay, serotoninergic 5-HT6 receptors; conditions: binding assay result in %, Table 5a;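 also: test compound at 1 µM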
T4 construct: purchased PerkinElmer
T4 sequence (P50406 whole entry): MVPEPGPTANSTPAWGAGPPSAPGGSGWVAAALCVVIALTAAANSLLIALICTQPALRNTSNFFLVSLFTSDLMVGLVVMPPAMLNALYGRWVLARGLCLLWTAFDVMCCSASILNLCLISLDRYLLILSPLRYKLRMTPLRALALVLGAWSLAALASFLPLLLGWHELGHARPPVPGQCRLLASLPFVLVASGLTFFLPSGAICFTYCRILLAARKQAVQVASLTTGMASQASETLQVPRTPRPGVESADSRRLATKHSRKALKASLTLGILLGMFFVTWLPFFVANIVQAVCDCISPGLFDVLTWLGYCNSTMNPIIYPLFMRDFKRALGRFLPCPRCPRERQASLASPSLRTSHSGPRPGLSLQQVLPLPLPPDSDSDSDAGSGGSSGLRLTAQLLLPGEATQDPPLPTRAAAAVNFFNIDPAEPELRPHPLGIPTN
Description: as §1, §2, §3
5-HT6: Bryan L. Roth. Assay Protocol Book. University of North Carolina At Chapel Hill. National Institute of Mental Health. Psychoactive Drug Screening Program. Available on-line at 31 Aug. 2008: http://pdsp.med.unc.edu/UNC-CH %20Protocol%20Book.pdf

[3] = test system: α1 adrenergic receptors (rat cerebral cortex); assay: Radioligand binding assay, adrenergic α1 receptors; conditions: test compound 1×10^−6 M
Description: as §1
as §2, with “This analysis was performed using a software developed at Cerep (Hill software) and validated by comparison with data generated by the commercial software SigmaPlot® 4.0 for Windows® (© 1997 by SPSS Inc.).” left out

[4] = target: T5, 5-HT1A receptor (rat hippocampus) (Rattus norvegicus, UniProt P19327); assay: Radioligand binding assay, serotoninergic 5-HT1A receptors; conditions: binding assay result in %, Table 5a;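 also: test compound at 1 µM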
T5 construct: hippocampus; from tissue; host or cells: rat hippocampus
T5 sequence (P19327 1-422): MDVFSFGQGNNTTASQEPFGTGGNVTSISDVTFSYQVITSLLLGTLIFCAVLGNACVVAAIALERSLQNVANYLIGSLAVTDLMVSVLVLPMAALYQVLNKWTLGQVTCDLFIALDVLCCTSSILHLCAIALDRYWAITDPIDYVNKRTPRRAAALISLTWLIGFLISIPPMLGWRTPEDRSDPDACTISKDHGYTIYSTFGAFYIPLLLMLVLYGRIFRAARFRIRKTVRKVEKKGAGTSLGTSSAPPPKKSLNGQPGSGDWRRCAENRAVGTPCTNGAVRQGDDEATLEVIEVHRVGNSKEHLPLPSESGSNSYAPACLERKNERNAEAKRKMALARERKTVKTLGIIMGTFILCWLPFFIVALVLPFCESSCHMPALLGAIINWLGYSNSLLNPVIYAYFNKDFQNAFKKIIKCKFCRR
Description: as §1, §2, §3

[5] = target: dopaminergic receptors D3 (Homo sapiens, UniProt P35462); assay: Radioligand binding assay, dopaminergic D3 receptors; conditions: test compound 1×10^−6 M
dopaminergic receptors D3, sequence (P35462 whole entry): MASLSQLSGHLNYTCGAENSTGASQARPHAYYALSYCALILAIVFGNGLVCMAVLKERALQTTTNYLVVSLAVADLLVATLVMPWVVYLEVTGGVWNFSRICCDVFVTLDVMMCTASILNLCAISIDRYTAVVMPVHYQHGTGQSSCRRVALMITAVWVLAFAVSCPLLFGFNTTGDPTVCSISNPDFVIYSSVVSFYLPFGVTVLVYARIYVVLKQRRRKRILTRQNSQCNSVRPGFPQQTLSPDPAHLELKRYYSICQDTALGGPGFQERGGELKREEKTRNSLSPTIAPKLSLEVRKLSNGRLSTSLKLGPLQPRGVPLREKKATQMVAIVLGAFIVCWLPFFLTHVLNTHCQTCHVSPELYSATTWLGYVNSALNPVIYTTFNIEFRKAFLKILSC
Description: as §1, §2, §4

T1 sequence (P34969 whole entry): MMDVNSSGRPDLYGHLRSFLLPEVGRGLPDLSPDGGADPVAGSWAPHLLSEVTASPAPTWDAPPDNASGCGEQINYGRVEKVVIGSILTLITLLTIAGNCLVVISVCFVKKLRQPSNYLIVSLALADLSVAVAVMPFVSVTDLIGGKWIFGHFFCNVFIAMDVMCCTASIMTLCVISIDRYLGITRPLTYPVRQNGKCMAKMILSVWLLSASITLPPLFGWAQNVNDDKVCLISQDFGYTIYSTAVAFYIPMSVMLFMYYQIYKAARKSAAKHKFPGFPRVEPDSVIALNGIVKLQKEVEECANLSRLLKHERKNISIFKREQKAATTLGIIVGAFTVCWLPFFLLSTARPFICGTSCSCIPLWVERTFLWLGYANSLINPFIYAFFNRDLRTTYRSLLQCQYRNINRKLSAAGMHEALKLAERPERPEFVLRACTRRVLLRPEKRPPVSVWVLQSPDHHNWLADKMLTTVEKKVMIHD

Compound	5-HT7 [%] (5-HT7 receptor)	SERT [%] [1]	5-HT2A [%] (5-HT2A receptor)	D2 [%] [2]	5-HT6 [%] (5-HT6 receptor)	α1 [%] [3]	5-HT1A [%] [4]	D3 [%] [5]	inhibition at 1 µM (5-HT7 receptor)	inhibition at 1 µM [1]	inhibition at 1 µM (5-HT2A receptor)	inhibition at 1 µM [2]	inhibition at 1 µM (5-HT6 receptor)	inhibition at 1 µM [4]	inhibition at 1 µM [5]
3,4-Dichloro-N-[1-[3-(6-fluoro-1,2-benzoxazol-3-yl)propyl]pyrrolidin-3-yl]benzenesulphonamide [Compound 211]	107%	4%	100%	93%	92%	90%	32%	63%	–	–	–	–	–	–	–
O=S(=O)(NC1CCN(CCCc2noc3cc(F)ccc23)C1)c1ccc(F)cc1 (stereo not shown) [Compound 8, 4-Fluoro-N-[1-[3-(6-fluoro-1,2-benzoxazol-3-yl)propyl]pyrrolidin-3-yl]benzenesulphonamide]	–	–	–	–	–	95%	–	–	85%	-13%	97%	72%	64%	5%	18%
O=S(=O)(NC1CCN(CCCc2noc3cc(F)ccc23)C1)c1cccc(Cl)c1 (stereo not shown) [Compound 9, 3-Chloro-N-[1-[3-(6-fluoro-1,2-benzoxazol-3-yl)propyl]pyrrolidin-3-yl]benzenesulphonamide]	–	–	–	–	–	83%	–	–	90%	2%	95%	88%	75%	12%	30%
O=S(=O)(NC1CCN(CCCc2noc3cc(F)ccc23)C1)c1cccc(C(F)(F)F)c1 (stereo not shown) [Compound 15, N-[1-[3-(6-Fluoro-1,2-benzoxazol-3-yl)propyl]pyrrolidin-3-yl]-3-(trifluoromethyl)benzenesulphonamide]	–	–	–	–	–	89%	–	–	48%	-7%	57%	75%	83%	18%	14%
O=S(=O)(NC1CCN(CCCc2noc3cc(F)ccc23)C1)c1cccc(O)c1 (stereo not shown) [Compound 18, N-[1-[3-(6-Fluoro-1,2-benzoxazol-3-yl)propyl]pyrrolidin-3-yl]-3-hydroxybenzenesulphonamide]	–	–	–	–	–	98%	–	–	94%	37%	85%	73%	59%	18%	31%
O=S(=O)(NC1CCN(CCCc2noc3cc(F)ccc23)C1)c1ccc(Cl)s1 (stereo not shown) [Compound 22, 5-Chloro-N-[1-[3-(6-fluoro-1,2-benzoxazol-3-yl)propyl]pyrrolidin-3-yl]thiophene-2-sulphonamide]	–	–	–	–	–	91%	–	–	85%	5%	95%	85%	72%	0%	23%
Cc1cc(S(=O)(=O)NCC2CCN(CCCc3noc4cc(F)ccc34)C2)c(C)s1 (stereo not shown) [Compound 262, N-[[1-[3-(6-Fluoro-1,2-benzoxazol-3-yl)propyl]pyrrolidin-3-yl]methyl]-2,5-dimethyl-thiophene-3-sulphonamide]	–	–	–	–	–	–	–	–	92%	26%	85%	26%	69%	25%	44%
O=S(=O)(NCC1CCN(CCCc2noc3cc(F)ccc23)C1)c1ccc(F)c(Cl)c1 (stereo not shown) [Compound 263, 3-Chloro-4-fluoro-N-[[1-[3-(6-fluoro-1,2-benzoxazol-3-yl)propyl]pyrrolidin-3-yl]methyl]benzenesulphonamide]	–	–	–	–	–	–	–	–	92%	11%	97%	59%	85%	19%	71%
O=S(=O)(NC1CCN(CCCc2noc3cc(F)ccc23)CC1)c1cc2ccccc2s1 [Compound 324, N-[1-[3-(6-Fluoro-1,2-benzoxazol-3-yl)propyl]-4-piperidyl]benzothiophene-2-sulphonamide]	–	–	–	–	–	–	–	–	101%	18%	99%	77%	78%	49%	41%
CC(C)(C)c1ccc(S(=O)(=O)NC2CCN(CCCc3noc4cc(F)ccc34)CC2)cc1 [Compound 328, 4-tert-Butyl-N-[1-[3-(6-fluoro-1,2-benzoxazol-3-yl)propyl]-4-piperidyl]benzenesulphonamide]	–	–	–	–	–	–	–	–	90%	25%	96%	64%	94%	49%	40%
Cn1ccc2c(S(=O)(=O)NC3CCN(CCCc4noc5cc(F)ccc45)CC3)cccc21 [Compound 329, N-[1-[3-(6-Fluoro-1,2-benzoxazol-3-yl)propyl]-4-piperidyl]-1-methyl-indole-4-sulphonamide]	–	–	–	–	–	–	–	–	97%	43%	94%	84%	62%	49%	68%
O=S(=O)(NC1CCN(CCCc2noc3cc(F)ccc23)CC1)c1csc2ccccc12 [Compound 330, N-[1-[3-(6-Fluoro-1,2-benzoxazol-3-yl)propyl]-4-piperidyl]benzothiophene-3-sulphonamide]	–	–	–	–	–	–	–	–	101%	22%	102%	77%	79%	82%	64%
N-[[1-[3-(6-Fluoro-1,2-benzoxazol-3-yl)propyl]pyrrolidin-3-yl]methyl]-1-methyl-indole-5-sulphonamide [Compound 258]	78%	25%	98%	92%	89%	–	64%	43%	–	–	–	–	–	–	–

Reference: patent US20140135310A1, “SULPHONAMIDE DERIVATIVES OF ALICYCLIC AMINES FOR THE TREATMENT OF CENTRAL NERVOUS SYSTEM DISEASES” (Adamed Sp. z o.o., priority 2011, published 2014)
